# Laboratory results taken from US20070167408A1, “NOVEL ALKYL PHOSPHOLIPID DERIVATIVES WITH REDUCED CYTOTOXICITY AND USES THEREOF” (ZENTARIS GmbH, priority 2005, published 2007).
# Tests used:
# Type in all cases: cell-based
# [1] = tested on: PC3 (human prostate carcinoma) cells; assay: XTT cytotoxicity assay, PC3 cells; conditions: 31.6 μM, second set of experiments
# Procedure, shortened: (§1)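 Cells recovered 24 h after plating, then exposed to compounds for 48 h at 37 °C; one set used 10 semi-log concentrations from 100 μM, another 31.6 μM final for PC3 and RKOp21. XTT-PMS added for 3 h, formazan absorbance at 490 nm versus untreated cells; IC50 from inhibition curves.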
# [2] = tested on: RKOp21 (human colon adenocarcinoma) cells; assay: XTT cytotoxicity assay, RKOp21 cells; conditions: 31.6 μM, second set of experiments
# Procedure, shortened: as §1
# [3] = tested on: Candida albicans TS3; assay: Anti-fungal broth microdilution (MIC), fungus F; conditions: yeast protocol, more than 80% inhibition, 48 h
# Description: (§2) Anti-fungal activity of selected compounds of the invention was assessed by means of anti-fungal susceptibility tests as follows.
# (§3) The antifungal activities of the compounds of the invention against different fungi were measured according to standard broth microdilution methods of the US National Committee for Clinical Laboratory standards (NCCLS) for yeasts (NCCLS document M27-A, 1997) and filamentous fungi (NCCLS document M38-A, 2002).
# (§4) Stock solutions of compounds of the invention were freshly prepared on the days of experiments equal to 1.28 mg/10 ml media. Serial dilutions were performed to achieve the following testing concentrations: 64 μg/ml, 32 μg/ml, 16 μg/ml, 8 μg/ml, 4 μg/ml, 2 μg/ml, 1 μg/ml, 0.5 μg/ml, 0.25 μg/ml and 0.125 μg/ml.
# (§5) An inoculum of 10^6 CFU/ml of the fungi strain was prepared in the appropriate medium and transferred to test tubes for incubation.
# (§6) The method is used to determine the minimum inhibitory concentrations (MIC) of drugs on fungi strains. […] For the filamentous fungi protocol, MIC determination took place after 48 to 72 h of culture at 35° C. and was defined at that concentration which produced more than 50% visible growth inhibition.
# [4] = tested on: Candida albicans ATCC 10231; assay: Anti-fungal broth microdilution (MIC), fungus D; conditions: yeast protocol, more than 80% inhibition, 48 h
# Description: as §2, §3, §4, §5, §6
# [5] = tested on: Cryptococcus neoformans H99; assay: Anti-fungal broth microdilution (MIC), fungus I; conditions: yeast protocol, more than 80% inhibition, 48 h
# Description: as §2, §3, §4, §5, §6
# [6] = tested on: Enterococcus faecium DSM 20477 (ATCC 19434); assay: Anti-bacterial bouillon microdilution assay (MIC), bacterium C; conditions: Enterococcus faecium DSM 20477, 24 h
# Description: Selected compounds of the invention were tested in a bouillon microdilution assay method according to the DIN 58940 (www.din.de) guidelines for determination of susceptibility of bacterial strains with regard to cell growth inhibition. The assay method quantifies bacterial cell growth which corresponds to the turbidity of the liquid culture medium by photometric measurement carried out at 595 nm.
# The method of MIC determination was performed according to DIN 58940-5. The volumina were adapted according to the microdilution method as described in DIN 58940-7 guideline.
# Dependent on water solubility, compounds of the invention were dissolved either in water or ethanol in a concentration of 10 mg/ml. Subsequently, the stock was further diluted in water to a concentration of 512 μg/ml. The following serial dilutions (factor 2) were performed in water resulting in the following […] testing concentrations: 256 μg/ml, 128 μg/ml, 64 μg/ml, 32 μg/ml, 16 μg/ml, 8 μg/ml, 4 μg/ml, 2 μg/ml, 1 μg/ml, 0.5 μg/ml, 0.25 μg/ml and 0.125 μg/ml. Diluted compounds of the invention were transferred in 100 μl volume to the microtiter plate wells. […]
# Before and after incubation, bacterial growth was determined by photometric analysis against a positive control containing growing bacteria without compound and a sterile/negative control containing only the medium.
Compound,PC3 % INH [31.6 μM] [1] [%],RKOp21 % INH [31.6 μM] [2] [%],"MIC, fungus F [3] [µg/mL]","MIC, fungus D [4] [µg/mL]","MIC, fungus I [5] [µg/mL]","inhibition at 31.6 µM ([1]; Homo sapiens, PC-3, read-out: PC3 % INH [31.6 μM]) [%]","inhibition at 31.6 µM ([2]; Homo sapiens, read-out: RKOp21 % INH [31.6 μM]) [%]",MIC [6] [µg/mL]
"CCCCCCCCCCCCCCCCOP(=O)([O-])OCC[N+]1(C)CCCCC1 [Compound 2, Phosphoric acid hexadecyl ester 2-(1-methyl-piperidin-1-yl)-ethyl ester]",50.1,38.8,1.5,1,1,–,–,–
"CCCCCCCCCCCCCCCCOP(=O)([O-])OCC[N+](C)(C)C [miltefosine, hexadecylphosphocholine, reference compound]",–,–,–,–,–,67.4,64,32
